Test system: insects in wheat
Test: Monitoring efficiency of Deltamethrin pest control treatment in wheat with the TV1061 sensor
Type: in vivo
Settings: FIG. 13
Procedure: Reference is now made to FIG. 13 showing monitoring efficiency of Deltamethrin pest control treatment in wheat. To determinate system capability to test the efficiency of the pest control treatments, infected and clean wheat were treated with Deltamethrin. Then, sensor (with TV1061 strain) was placed into the treated chambers. […] Deltamethrin is not effective against eggs inside the wheat. Therefore insects inside wheat (in eggs) will be destroyed at the time when they will hatch and walk out. […] Then decreasing in the sensor responses to the background levels may be explained by killing these insects by Deltamethrin residues on the wheat.

CC1(C)[C@H](C(=O)O[C@H](C#N)c2cccc(Oc3ccccc3)c2)[C@@H]1C=C(Br)Br [Deltamethrin]
effectiveness against eggs inside the wheat (eggs inside the wheat, sensor response increased on the third day after sanitization): not effective
pest control efficiency (insects in infected wheat) (infected and clean wheat treated, inferred from similar TV1061 sensor responses in infected and uninfected sample): all insects were destroyed

Source: patent US20210302318A1, “MEANS AND METHOD FOR THE REAL-TIME ANALYSIS OF HARVESTED CROPS” (THE STATE OF ISRAEL, MINISTRY OF AGRICULTURE & RURAL …, priority 2018, published 2021)
